Data: ChEMBL document CHEMBL1811849, “Development of a plate-based scintillation proximity assay for the mycobacterial AftB enzyme involved in cell wall arabinan biosynthesis” (Bioorg Med Chem, 2010)
The source made the active and inactive calls. No cut-off for these calls is given here.

How the values were obtained:
[1] = test system: Mycolicibacterium smegmatis; test: Activity of AftB in Mycobacterium smegmatis membrane assessed as formation of biosynthetic products by TLC based assay; assay type: cell membranes
[2] = test system: Mycolicibacterium smegmatis; test: Activity of AftB in Mycobacterium smegmatis membrane/p60 fraction assessed as incorporation of DP[3H]A to compound to generate biotinylated trisaccharide with beta-(1 to 2) Araf residue by SPA assay

SMILES | Activity [1] | Km [2]
C=CCCCO[C@H]1O[C@H](CO[C@H]2O[C@H](CO[C@H]3O[C@H](CO)[C@@H](O)[C@@H]3O)[C@@H](O)[C@@H]2O)[C@@H](O)[C@@H]1O | Active | 
O=C(CCCC[C@@H]1SC[C@@H]2NC(=O)N[C@@H]21)NCCSCCCCCO[C@H]1O[C@H](CO[C@H]2O[C@H](CO)[C@@H](O)[C@@H]2O)[C@@H](O)[C@@H]1O |  | 40.9 µM
C=CCCCO[C@H]1O[C@H](CO[C@H]2O[C@H](CO[C@H]3O[C@H](CO[C@H]4O[C@H](CO)[C@@H](O)[C@@H]4O)[C@@H](O)[C@@H]3O)[C@@H](O)[C@@H]2O)[C@@H](O)[C@@H]1O | Active | 
C=CCCCO[C@H]1O[C@H](CO[C@H]2O[C@H](CO)[C@@H](O)[C@@H]2O)[C@@H](O)[C@@H]1O | Active | 
